{
  "source": "patent US11571484B2",
  "about": "“Compositions that target tumor-associated macrophages and methods of use therefor” (Sanford Burnham Prebys Medical Discovery Institute, priority 2017, dated 2023)",
  "key": {"[1]": {"test_system": "MEMs in WT-GBM tumors", "test": "Free peptide homing and immunofluorescence in the orthotopic WT-GBM glioblastoma model", "details": "30 nmoles i.v., 2 h", "description": "(§1) Thirty nmoles of FAM-UNO or FAM-control peptide were injected intravenously into mice and allowed to circulate for 2 h. Mice were then sacrificed and tumor and tissues were analyzed by immunofluorescence using rabbit anti-FAM (green) and rat anti-CD206 (red) antibodies, and counterstained with DAPI. […] The metastases were induced by i.v. inoculation of B16F10 melanoma cells. […] Blue: DAPI. Representative fields from multiple sections (n≥3) prepared from at least 3 tumors are shown. Scale bar: 50 μm. Images shown are representative fields from multiple sections (≥3) prepared from at least 3 tumors (n≥3 mice). The graphs show mean+SEM of FAM signal quantified as described in Materials and Methods.\n(§2) Tumor models were induced according to protocols approved by the Estonian Ministry of Agriculture, Committee of Animal Experimentation (permit #48). For the 4T1 breast model, 8-week old female Balb/c mice were injected in the mammary fat pad with 10^6 cells dispersed in 50 μL of PBS. For homing studies, mice were used 10 days later, when the tumor had reached ˜150 mm^3. For MCF-7 breast model, 8-week old female nude mice were implanted with an estrogen pellet, and 1 week later inoculated with 5×10^6 MCF-7 cells in 100 μL of cold Matrigel (BD Biosciences, CA, USA). Mice were used for homing studies three weeks later (tumor volume˜150 mm^3). For the metastatic gastric carcinoma, 10^6 MKN45-P cells in PBS were injected intraperitoneally in 8-week old female nude mice. Mice were used for homing studies two weeks later. For the metastatic melanoma model, 2×10^5 B16F10 cells were injected intravenously in 100 μL of PBS in C57 BL6 mice. The mice were used for homing studies 10 days after. For the angiogenic glioblastoma model, WT-GBM 24, 7×10^5 cells were stereotactically injected in the right striatum of Fox/Nu mice 2 mm lateral and posterior of bregma of 2.5 mm deep. The mice were used for homing studies 6-7 days after the injection.\nFor free peptide homing studies, mice were injected intravenously with 30 nmoles of FAM-peptides in 100 μL of PBS. For nanoparticle homing studies-FAM-UNO—NP-PTX-, mice were injected intravenously in mice bearing MCF-7 breast tumors with 1 mg of Polymer in 100 μL pf PBS and allowed to circulate for 6 h. For tissue collection, the mice were anesthetized and the tissues collected and immediately placed in 4% cold PFA and left overnight at 4-C. Tissues were washed with PBS for 2 h at room temperature and cryoprotected with sucrose 15% at 4-C overnight and then in sucrose 30% at 4·C overnight. […] FAM was detected using Rabbit anti-FITC (Invitrogen, CA, USA. Catalog # A-889) at a dilution of 1/100 and using Alexa Fluor-546 anti-rabbit antibody (Invitrogen, Ca, USA. Catalog # A-11035) at a dilution of 1/200."}, "[2]": {"test_system": "sentinel lymph node", "test": "Ex vivo organ imaging after i.p. injection in 4T1 tumor-bearing mice", "parameters": "species or system mouse", "details": "30 nmoles i.p., 2 h, signal normalized to tissue weight, ratio tissue/kidney", "description": "A, FAM-UNO and FAM-LyP-1 were injected i.p. at doses of 30 nmoles in 4T1 tumor-bearing mice. Peptides were allowed to circulate for two h, mice were then sacrificed, and the organs were collected and imaged with the live imaging system MX3 Art Optix in the FITC channel with laser excitation. B, The signal in each organ was quantified, normalized to the tissue weight and the ratio tissue/kidney was graphed in bar graph. LyP-1 is a peptide that targets p32 protein on the surface of activated macrophages. Results from n=3 mice. Bars of panel B represent mean+SEM."}, "[3]": {"test_system": "MEMs in MKN45-P tumors", "details": "30 nmoles i.v., 2 h", "description": "as §1\nas §2, with “For the angiogenic glioblastoma model, WT-GBM 24, 7×10^5 cells were stereotactically injected in the right striatum of Fox/Nu mice 2 mm lateral and posterior of bregma of 2.5 mm deep. The mice were used for homing studies 6-7 days after the injection.” left out\nFor free peptide homing studies, mice were injected intravenously with 30 nmoles of FAM-peptides in 100 μL of PBS. […] FAM was detected using Rabbit anti-FITC (Invitrogen, CA, USA. Catalog # A-889) at a dilution of 1/100 and using Alexa Fluor-546 anti-rabbit antibody (Invitrogen, Ca, USA. Catalog # A-11035) at a dilution of 1/200."}},
  "note": "Ends that are not written are not given here. FAM = 5(6)-carboxyfluorescein; Ahx = NCCCCCC(=O)O",
  "data": [
    {"substance": "FAM-UNO: FAM-labeled UNO peptide CSPGAKVRC (SEQ ID NO: 1); 5(6)-carboxyfluorescein with 6-aminohexanoic acid spacer at the N-terminus ({FAM-Ahx}-CSPGAKVRC; cysteine pairing not given here)", "values": [
      {"measurement": "accumulation in tumor", "setting": "[1]", "result": "accumulated in the tumor areas containing MEMs"},
      {"measurement": "signal in normal brain parenchyma", "setting": "[1]", "result": "No signal"},
      {"measurement": "accumulation of FAM in the sentinel lymph node versus FAM-LyP-1", "setting": "[2]", "result": "significantly higher accumulation of the FAM in the sentinel lymph node"},
      {"measurement": "accumulation in MEMs / CD206+ cells", "setting": "[3]", "result": "accumulated in MEMs"}
    ]}
  ]
}
